AC50 data for 25 compounds are collected here from patent publication US10654828B2 (NOVARTIS AG, priority 2017, dated 2020).

Where two headings read alike, the source gives them in different places.

One test relates to FoxO3a. Put plainly: FoxO3a inhibition: GFP-FoxO3a nuclear to cytoplasmic translocation reporter assay. The format is cell-based. As to conditions: U2OS GFP-FoxO3a H212R cells, serum starved overnight, compound 30 minutes, ratio of nuclear to cytosolic GFP intensity, DMSO control 0%, read-out: FoxO AC50. On the procedure: (§1) Phosphorylation of AKT on S473 and FoxO3a nuclear to cytoplasmic translocation were used as readouts of PI3K/Akt/mTOR pathway activation downstream of growth factor signaling.
(§2) Reporter cell line. U2OS GFP-FoxO3a H212R reporter cell line was established by transducing U2OS cells with the retroviral plasmid pLEGFP-C1 containing FoxO3a H212R transgene and selecting for G418 resistant clones.
(§3) Reporter assay. U2OS GFP-FoxO3a H212R cells were plated in 384-well plates at 4000 cells per well in 30 microliters of McCoy's 5 A medium containing 10% FBS. On day 1 the cells were washed with serum free medium and serum starved overnight. On day 2 the cells were treated with different doses of the compounds for 30 minutes, fixed with 4% Paraformaldehyde for 1 hour and stained with Phospho-AKT (Ser473) antibody (Cell Signaling Technology, catalog #4060) overnight at 4 degrees Celsius. After nuclei staining with Hoechst 33342 (Life Technologies, catalog # H3570) the plates were imaged with InCell 2000 (GE Healthcare Bio-Sciences). FoxO3a inhibition activity is calculated as the ratio of nuclear to cytosolic GFP intensity in percent. AKT activation is measured as the total cellular intensity of Phospho-AKT antibody staining in percent. DMSO control is set as 0% activity.

In the next test the test system is AKT. Put plainly: AKT activation: Phospho-AKT (Ser473) antibody staining in reporter cells. The format is cell-based. As to conditions: U2OS GFP-FoxO3a H212R cells, serum starved overnight, compound 30 minutes, total cellular intensity of Phospho-AKT (Ser473) staining, DMSO control 0%. As for the experimental part: as §1, §2, §3

Usually AC50 stands for the midpoint of the concentration-response curve, whichever way the signal moves. On to `Cc1cc(C(N)=O)nn1-c1ccc2c(ccn2Cc2ccc(C3CCN(C)C3)cc2)c1` (racemic) [Example 2-1, rac-5-methyl-1-(1-(4-(1-methylpyrrolidin-3-yl)benzyl)-1H-indol-5-yl)-1H-pyrazole-3-carboxamide], for which the AC50 worked out at 733 nM with FoxO3a (Homo sapiens, U2OS, 0.5 h) and 2510 nM in the test on AKT (Homo sapiens, U2OS, 0.5 h).
With `Cc1cc(C(N)=O)nn1-c1ccc2c(ccn2Cc2ccc(C3=C[C@H]4CNC[C@H]4C3)cc2)c1` (racemic) [Example 24, (cis)-1-(1-(4-(1,2,3,3a,4,6a-hexahydrocyclopenta[c]pyrrol-5-yl)benzyl)-1H-indol-5-yl)-5-methyl-1H-pyrazole-3-carboxamide], the AC50 in the test with FoxO3a (Homo sapiens, U2OS, 0.5 h) is 381 nM; in the test on AKT (Homo sapiens, U2OS, 0.5 h), 1200 nM.
Regarding `Cc1cc(C(N)=O)nn1-c1ccc2c(ccn2Cc2ccc(C3=C[C@H]4CN(C)C[C@H]4C3)cc2)c1` (racemic) [Example 25, (cis)-5-methyl-1-(1-(4-(2-methyl-1,2,3,3a,4,6a-hexahydrocyclopenta[c]pyrrol-5-yl)benzyl)-1H-indol-5-yl)-1H-pyrazole-3-carboxamide], the half-maximal activity concentration (AC50) is 215 nM in the test on FoxO3a (Homo sapiens, U2OS, 0.5 h) and 1120 nM in the test with AKT (Homo sapiens, U2OS, 0.5 h).
For the compound `Cc1cc(C(N)=O)nn1-c1ccc2c(ccn2Cc2ccc(CC3CCN(C)C3)cc2)c1` (racemic) [Example 31, rac-5-methyl-1-(1-(4-((1-methylpyrrolidin-3-yl)methyl)benzyl)-1H-indol-5-yl)-1H-pyrazole-3-carboxamide], the concentration at half-maximal activity (AC50) in the test on FoxO3a (Homo sapiens, U2OS, 0.5 h) stood at 350 nM; in the test on AKT (Homo sapiens, U2OS, 0.5 h), 747 nM.
`Cc1cc(C(N)=O)nn1-c1ccc2c(ccn2Cc2ccc(C3=CCN4CCCC3C4)cc2)c1` (single isomer, unassigned) [Example 13, 1-(1-(4-(1-azabicyclo[3.3.1]non-3-en-4-yl)benzyl)-1H-indol-5-yl)-5-methyl-1H-pyrazole-3-carboxamide]: the AC50 with FoxO3a (Homo sapiens, U2OS, 0.5 h) was found to be 437 nM; in the test on AKT (Homo sapiens, U2OS, 0.5 h), 1530 nM.
On to `Cc1cc(C(N)=O)nn1-c1ccc2c(ccn2Cc2ccc(C3=CCN4CCCC3C4)cc2)c1` (single isomer, unassigned) [Example 14, 1-(1-(4-(1-azabicyclo[3.3.1]non-3-en-4-yl)benzyl)-1H-indol-5-yl)-5-methyl-1H-pyrazole-3-carboxamide], for which the values for the AC50 in the test with FoxO3a and in the test on AKT were 652 nM and 2100 nM, respectively.
The like results for `Cc1cc(C(N)=O)nn1-c1ccc2c(ccn2Cc2ccc(C3CCN(C)CC3(C)C)cc2)c1` (single isomer, unassigned) [Example 16-2, 5-methyl-1-(1-(4-(1,3,3-trimethylpiperidin-4-yl)benzyl)-1H-indol-5-yl)-1H-pyrazole-3-carboxamide] were, in that order, 161 nM and 1220 nM.
The corresponding values for `Cc1cc(C(N)=O)nn1-c1ccc2c(ccn2Cc2ccc(C3CCN(C)CC3(C)C)cc2)c1` (single isomer, unassigned) [Example 16-3, 5-methyl-1-(1-(4-(1,3,3-trimethylpiperidin-4-yl)benzyl)-1H-indol-5-yl)-1H-pyrazole-3-carboxamide] are 1040 nM and 3190 nM.
The like results for `Cc1cc(C(N)=O)nn1-c1ccc2c(ccn2Cc2ccc(C3=CCN(C)CC3C)cc2)c1` (single isomer, unassigned) [Example 17-2, 1-(1-(4-(1,3-dimethyl-1,2,3,6-tetrahydropyridin-4-yl)benzyl)-1H-indol-5-yl)-5-methyl-1H-pyrazole-3-carboxamide] were, in that order, 47 nM and 123 nM.
Turning to `Cc1cc(C(N)=O)nn1-c1ccc2c(ccn2Cc2ccc(C3=CCN(C)CC3C)cc2)c1` (single isomer, unassigned) [Example 17-3, 1-(1-(4-(1,3-dimethyl-1,2,3,6-tetrahydropyridin-4-yl)benzyl)-1H-indol-5-yl)-5-methyl-1H-pyrazole-3-carboxamide], the AC50 with FoxO3a was 251 nM; with AKT it was 840 nM.
For `Cc1cc(C(N)=O)nn1-c1ccc2c(ccn2Cc2ccc(C3CCCN(C)CC3)cc2)c1` (single isomer, unassigned) [Example 29-1, 5-methyl-1-(1-(4-(1-methylazepan-4-yl)benzyl)-1H-indol-5-yl)-1H-pyrazole-3-carboxamide], the half-maximal activity concentration (AC50) with FoxO3a (Homo sapiens, U2OS, 0.5 h) amounted to 483 nM; in the test on AKT (Homo sapiens, U2OS, 0.5 h), 1690 nM.
For the compound `Cc1cc(C(N)=O)nn1-c1ccc2c(ccn2Cc2ccc(C3CCCN(C)CC3)cc2)c1` (single isomer, unassigned) [Example 29-2, 5-methyl-1-(1-(4-(1-methylazepan-4-yl)benzyl)-1H-indol-5-yl)-1H-pyrazole-3-carboxamide], the AC50 stood at 818 nM in the test on FoxO3a and 2100 nM with AKT.
Take `Cc1cc(C(N)=O)nn1-c1ccc2c(ccn2Cc2ccc(NC3CCN(C)C3)cc2)c1` (single isomer, unassigned) [Example 37-1, 5-Methyl-1-(1-(4-((1-methylpyrrolidin-3-yl)amino)benzyl)-1H-indol-5-yl)-1H-pyrazole-3-carboxamide]: the AC50 in the test on FoxO3a (Homo sapiens, U2OS, 0.5 h) came to 724 nM; in the test with AKT (Homo sapiens, U2OS, 0.5 h), 4790 nM.
In the case of `Cc1cc(C(N)=O)nn1-c1ccc2c(ccn2Cc2ccc(NC3CCN(C)C3)cc2)c1` (single isomer, unassigned) [Example 37-2, 5-methyl-1-(1-(4-((1-methylpyrrolidin-3-yl)amino)benzyl)-1H-indol-5-yl)-1H-pyrazole-3-carboxamide], the AC50 in the test with FoxO3a turned out to be 928 nM; with AKT, 4080 nM.
For the compound `Cc1cc(C(N)=O)nn1-c1ccc2c(ccn2Cc2ccc(C3=CCN(C)CC3)cc2)c1` [Example 1-1, 5-methyl-1-(1-(4-(1-methyl-1,2,3,6-tetrahydropyridin-4-yl)benzyl)-1H-indol-5-yl)-1H-pyrazole-3-carboxamide], the AC50 in the test on FoxO3a (Homo sapiens, U2OS, 0.5 h) was determined as 53 nM; with AKT (Homo sapiens, U2OS, 0.5 h), 138 nM.
For the compound `Cc1cc(C(N)=O)nn1-c1ccc2c(ccn2Cc2ccc(-c3ccncc3)cc2)c1` [Example 1-2, 5-methyl-1-(1-(4-(pyridin-4-yl)benzyl)-1H-indol-5-yl)-1H-pyrazole-3-carboxamide], the AC50 in the test with FoxO3a (Homo sapiens, U2OS, 0.5 h) was 102 nM.
In the case of `Cc1cc(C(N)=O)nn1-c1ccc2c(ccn2Cc2ccc(C3=CCOCC3)cc2)c1` [Example 1-3, 1-(1-(4-(3,6-dihydro-2H-pyran-4-yl)benzyl)-1H-indol-5-yl)-5-methyl-1H-pyrazole-3-carboxamide], the half-maximal activity concentration (AC50) was 201 nM in the test on FoxO3a (Homo sapiens, U2OS, 0.5 h) and greater than 10000 nM in the test on AKT (Homo sapiens, U2OS, 0.5 h).
The like results for `CC(=O)N1CC=C(c2ccc(Cn3ccc4cc(-n5nc(C(N)=O)cc5C)ccc43)cc2)CC1` [Example 1-4, 1-(1-(4-(1-acetyl-1,2,3,6-tetrahydropyridin-4-yl)benzyl)-1H-indol-5-yl)-5-methyl-1H-pyrazole-3-carboxamide] were, in that order, 121 nM and 252 nM.
The like results for `Cc1cc(C(N)=O)nn1-c1ccc2c(ccn2Cc2ccc(-c3ccc(C#N)cc3)cc2)c1` [Example 1-5, 1-(1-((4′-cyano-[1,1′-biphenyl]-4-yl)methyl)-1H-indol-5-yl)-5-methyl-1H-pyrazole-3-carboxamide] were, in that order, 285 nM and greater than 10000 nM.
`Cc1cc(C(N)=O)nn1-c1ccc2c(ccn2Cc2ccc(-c3ccc(S(C)(=O)=O)cc3)cc2)c1` [Example 1-6, 5-methyl-1-(1-((4′-(methylsulfonyl)-[1,1′-biphenyl]-4-yl)methyl)-1H-indol-5-yl)-1H-pyrazole-3-carboxamide]: the AC50 with FoxO3a (Homo sapiens, U2OS, 0.5 h) came to 101 nM; in the test on AKT (Homo sapiens, U2OS, 0.5 h), 250 nM.
Turning to `Cc1cc(C(N)=O)nn1-c1ccc2c(ccn2Cc2ccc(-c3ccc4nccn4c3)cc2)c1` [Example 1-7, 1-(1-(4-(imidazo[1,2-a]pyridin-6-yl)benzyl)-1H-indol-5-yl)-5-methyl-1H-pyrazole-3-carboxamide], the AC50 in the test on FoxO3a (Homo sapiens, U2OS, 0.5 h) is 194 nM; in the test with AKT (Homo sapiens, U2OS, 0.5 h), 680 nM.
The like results for `Cc1cc(C(N)=O)nn1-c1ccc2c(ccn2Cc2ccc(C3=CCCN(C)C3)cc2)c1` [Example 1-8, 5-methyl-1-(1-(4-(1-methyl-1,2,5,6-tetrahydropyridin-3-yl)benzyl)-1H-indol-5-yl)-1H-pyrazole-3-carboxamide] were, in that order, 517 nM and greater than 10000 nM.
In the case of `Cc1cc(C(N)=O)nn1-c1ccc2c(ccn2Cc2ccc(C3CCN(CCCN)CC3)cc2)c1` [Example 8, 1-(1-(4-(1-(3-aminopropyl)piperidin-4-yl)benzyl)-1H-indol-5-yl)-5-methyl-1H-pyrazole-3-carboxamide], the half-maximal activity concentration (AC50) in the test on FoxO3a (Homo sapiens, U2OS, 0.5 h) worked out at 466 nM.
On the same count and under the same terms, with `CC(=O)NCCCN1CCC(c2ccc(Cn3ccc4cc(-n5nc(C(N)=O)cc5C)ccc43)cc2)CC1` [Example 9, 1-(1-(4-(1-(3-acetamidopropyl)piperidin-4-yl)benzyl)-1H-indol-5-yl)-5-methyl-1H-pyrazole-3-carboxamide] the figure was 301 nM.
`Cc1cc(C(N)=O)nn1-c1ccc2c(c1)c(CCCO)cn2Cc1ccc([C@@H]2C[C@@H]3CN(C)C[C@@H]3C2)cc1` [Example 38, 1-(3-(3-hydroxypropyl)-1-(4-((3aR,5r,6aS)-2-methyloctahydrocyclopenta[c]pyrrol-5-yl)benzyl)-1H-indol-5-yl)-5-methyl-1H-pyrazole-3-carboxamide]: the AC50 in the test on FoxO3a (Homo sapiens, U2OS, 0.5 h) came to 81 nM.
